Data taken from patent publication US12357561B2, “Compositions and uses of alpha-adrenergic agents” (LEVATION PHARMA LTD., priority 2016, dated 2025).

Tested on: New Zealand rabbits
Experiment: Ocular observations after injection of oxymetazoline solutions into the post-septal fat pad of rabbits
Type: in vivo, rabbit
Conditions: for Palpebral Reflex / Threat Test: 100 μl post-septal fat pad injection; for Palpebral Reflex / Threat Test / eyelid closure (notes): Right Eye
Method: Rabbits without ocular pathology received oxymetazoline solutions by ocular injection. The evolution was tested postoperative, 1, 2, 3, 7, 10, and 14 day after oxymetazoline solutions administration. Eyelids were analyzed by histology at the end of the experiment. Endpoints included inflammation, fibrosis, pre- and post-septal fat, status of levator muscle and Müller's muscle, presence of vascular injury or necrosis or ischemic injury to eyelid tissues.
• Animals: female New Zealand rabbits (2.5-3 kg) • Sedation: atropine sulfate and midazolam IV (ear vein) • Anesthesia: induction with Propofol 1% (10 mg/kg) by ear vein • Maintenance with isoflurane (inhalant anesthesia) • Oxymetazoline solutions • Slit lamp Method Baseline Measures (1st Phase) • I. Animals (n=2); 2.5-3 kg New Zealand rabbit • II. Without sedation and anesthesia • III. Photographic record with a ruler (to serve as a standard measure of distance). Three sets of photos per measurements taken in dim lighting to keep rabbits from squinting • IV. 50 μl of 10% phenylephrine was administered via topical into the right eye (RE) • V. Photographic record with a ruler. Three sets of photos per measurements. After 20-30 minutes post-dose. • VI. Animals returned to animal housing. Test Article (Oxymetazoline Solutions) (2nd Phase) • I. Animals (n=3/each group); 2.5-3 kg New Zealand rabbit • II. Photographic record with a ruler (to serve as a standard measure of distance). Three sets of photos per measurements taken in dim lighting to keep rabbits from squinting. • III. Sedation with atropine sulfate and midazolam • IV. Induction with Propofol • V. Maintenance with isoflurane • VI. Ocular injection of oxymetazoline solutions or PBS (phosphate-buffered saline) • a. Group A: oxymetazoline 1 mg/ml in PBS (RE) and PBS (LE) • b. Group B: oxymetazoline 3 mg/ml in PBS (RE) and PBS (LE) • c. Group C: oxymetazoline 10 mg/ml in PBS (RE) and PBS (LE) All animals were administered 100 μI (0.1 ml) of the oxymetazoline solution (RE) or PBS vehicle control (LE) via an injection into the post-septal fat pad, adjacent to Müller's muscle of both eyelids on Day 0. For this injection, a 30G needle was used; test article was administered at least 4 mm away from the site of the needle entry to prevent reflux of fluid through the hole. • VII. Follow-up. • VIII. Euthanized animals 14 days after the injection of oxymetazoline solutions to process the eyelids tissues. • a. Harvest both eyelids from each animal and store in formalin • b. Histology (H/E staining) Follow-Up Follow-up included: • Eyelid retraction/ptosis measurements & digital photos with eyes directly facing camera and a ruler in the frame of the photograph to standardize distances. Three sets of photos per measurement taken in dim lighting to keep rabbits from squinting. • Slit-lamp biomicroscopy • Daily general health observations • Body weights prior to dosing and prior to sacrifice Study Variables • I. Palpebral fissure distance • II. Margin reflex distance 1 Results • Group A (1 mg/ml) • Notes: • pre-injection.
Group B (3 mg/ml) Notes: • pre-injection.

[1] = Group A 1 mg/ml in PBS, Day 2, animals #1/#2/#3
[2] = Group A 1 mg/ml in PBS, Day 3 morning, animals #1/#2/#3
[3] = Group A 1 mg/ml, Day 2 (3 h post-injection)
[4] = Group B 3 mg/ml in PBS, Day 2, animals #1/#2
[5] = Group B 3 mg/ml in PBS, Day 3 afternoon, animals #1/#2
[6] = Group B 3 mg/ml in PBS, Day 3 morning, animals #1/#2
[7] = Group B 3 mg/ml in PBS, Day 4 morning, animals #1/#2
[8] = Group B 3 mg/ml, Day 2 (3 h post-injection)

## Cc1cc(C(C)(C)C)c(O)c(C)c1CC1=NCCN1 [oxymetazoline]
[1]
  Palpebral Reflex: Abolished/Abolished/
  Threat Test: Abolished/Abolished/
Group A 1 mg/ml in PBS, Day 3 afternoon, animals #1/#2/#3
  Threat Test: Delayed/Delayed/Delayed
[2]
  Palpebral Reflex: Delayed/Delayed/Delayed
  Threat Test: Abolished/Abolished/
Group A 1 mg/ml in PBS, Day 4 afternoon, animals #1/#2/#3
  Threat Test: Delayed/Delayed/Delayed
Group A 1 mg/ml in PBS, Day 4 morning, animals #1/#2/#3
  Threat Test: Delayed/Delayed/Delayed
[3]
  ocular discomfort (notes): Animal show ocular discomfort
  eyelid closure (notes): pressure applied to close eyelid
Group A 1 mg/ml, Day 3 morning
  eyelid closure (notes): pressure applied to close eyelid
[4]
  Palpebral Reflex: Abolished/Abolished
  Threat Test: Abolished/Abolished
[5]
  Palpebral Reflex: Delayed/Delayed
  Threat Test: Abolished/Abolished
[6]
  Palpebral Reflex: Delayed/Delayed
  Threat Test: Abolished/Abolished
Group B 3 mg/ml in PBS, Day 4 afternoon, animals #1/#2
  Threat Test: Delayed/Delayed
[7]
  Palpebral Reflex: Delayed/Delayed
  Threat Test: Delayed/Delayed
Group B 3 mg/ml in PBS, Day 5, animals #1/#2
  Threat Test: Delayed/
[8]
  ocular discomfort (notes): Animal show ocular discomfort
  eyelid closure (notes): pressure applied to close eyelid
Group B 3 mg/ml, Day 3 afternoon
  eyelid closure (notes): pressure applied to close eyelid
Group B 3 mg/ml, Day 3 morning
  eyelid closure (notes): pressure applied to close eyelid
Group B 3 mg/ml, Day 4 morning
  eyelid closure (notes): pressure applied to close eyelid
